We go through 6 compounds from patent US20130225633A1, “PHENYL HETEROCYCLOALKYL GLUCOCORTICOID RECEPTOR MODULATORS” (Corcept Therapeutics, Inc., priority 2012, published 2013).

In assay [1] the target is T1, GR (TAT induction in HepG2 cells) (Homo sapiens, UniProt P04150).
T1 construct: host or cells: HepG2 (human hepatocellular carcinoma)
T1 sequence (P04150 1-777): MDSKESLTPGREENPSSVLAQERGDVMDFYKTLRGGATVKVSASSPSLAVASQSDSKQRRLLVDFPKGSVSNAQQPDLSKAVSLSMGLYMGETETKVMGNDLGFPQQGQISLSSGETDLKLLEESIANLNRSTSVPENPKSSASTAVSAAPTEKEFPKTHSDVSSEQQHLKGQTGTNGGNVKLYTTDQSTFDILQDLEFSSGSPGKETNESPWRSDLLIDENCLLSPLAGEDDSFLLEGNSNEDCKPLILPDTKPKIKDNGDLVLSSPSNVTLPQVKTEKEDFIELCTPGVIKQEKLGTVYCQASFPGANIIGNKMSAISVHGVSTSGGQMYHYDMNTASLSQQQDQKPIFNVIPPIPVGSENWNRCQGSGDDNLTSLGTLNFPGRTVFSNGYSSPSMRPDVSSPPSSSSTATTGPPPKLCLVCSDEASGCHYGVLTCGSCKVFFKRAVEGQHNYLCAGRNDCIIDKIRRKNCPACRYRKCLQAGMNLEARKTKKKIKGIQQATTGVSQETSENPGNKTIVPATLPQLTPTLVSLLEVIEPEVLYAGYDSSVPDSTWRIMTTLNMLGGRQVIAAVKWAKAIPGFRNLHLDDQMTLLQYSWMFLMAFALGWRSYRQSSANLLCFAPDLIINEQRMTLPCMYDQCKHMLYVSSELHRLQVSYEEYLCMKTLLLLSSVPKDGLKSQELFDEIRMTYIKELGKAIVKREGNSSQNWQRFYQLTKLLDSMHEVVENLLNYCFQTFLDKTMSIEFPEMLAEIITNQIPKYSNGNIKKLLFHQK
Briefly: cell-based. The note with it: read-out: GR functional Ki. The procedure:
Glucocorticoid mediated activation of TAT occurs by transactivation of glucocorticoid response elements in the TAT promoter by glucocorticoid receptor-agonist complex.
TAT activity was measured as outlined in the literature by A. Ali et al., J. Med. Chem., 2004, 47, 2441-2452.
HepG2 cells were cultured using MEME media supplemented with 10% (v/v) foetal bovine serum; 2 mM L-glutamine and 1% (v/v) NEAA at 37° C., 5%/95% (v/v) CO2/air. The HepG2 cells were counted and adjusted to yield a density of 0.125×10^6 cells/ml in RPMI 1640 without phenol red, 10% (v/v) charcoal stripped FBS, 2 mM L-glutamine and seeded at 25,000 cells/well in 200 μl into 96 well, sterile, tissue culture micro titre plates, and incubated at 37° C., 5% CO2 for 24 hours
Growth media was removed and replaced with assay media {RPMI 1640 without phenol red, 2 mM L-glutamine+10 μM forskolin}. […] Compounds were serially half log diluted in 100% (v/v) dimethylsupfoxide from a 10 mM stock.
HepG2 cells were then lysed with 30 μl of cell lysis buffer containing a protease inhibitor cocktail for 15 minutes at 4° C. 155 μl of substrate mixture was then added containing 5.4 mM Tyrosine sodium salt, 10.8 mM alpha ketoglutarate and 0.06 mM pyridoxal 5′ phosphate in 0.1M potassium phosphate buffer (pH 7.4). After 2 hours incubation at 37° C. the reaction was terminated by the addition of 15 μl of 10M aqueous potassium hydroxide solution, and the plates incubated for a further 30 minutes at 37° C. The TAT activity product was measured by absorbance at λ 340 nm.
[compound] and fitting the data to a 4 parameter logistic equation.

Assay [2] deals with T2, human recombinant GR (Homo sapiens, UniProt P04150).
T2 construct: purchased PanVera P2812
T2 sequence (P04150 1-777): T1 sequence (P04150 1-777)
Kind of assay: Human GR fluorescence polarisation (FP) binding assay (Example 23). As for the experimental part:
The following is a description of a FP assay for measuring compound inhibition of labelled glucocorticoid binding to the human recombinant GR.
The binding affinity of test compounds was determined using a FP binding assay using human recombinant GR (PanVera P2812) and a fluorescent labelled glucocorticoid ligand (Fluorome GS Red) (PanVera P2894). The presence of inhibitors prevents the formation of a GS Red/GR complex resulting in a decrease in the measured polarisation value. The change in polarisation value in the presence of test compounds is used to calculate the binding affinity of the compound for GR.
This assay was performed in 384 well, black, round-bottom, polypropylene micro titre plates in a final volume of 20 μl. The assay contained 5 μl 1 nM GR (final concentration), 5 μl 0.5 nM Fluorome GS Red (final concentration) in the presence of 10 μl test compounds. Positive control wells (high polarisation) receive, 10 μl 2% (v:v) DMSO vehicle (1% (v/v) final concentration)+5 μl 1 nM GR and 5 μl 0.5 nM Fluorome GS Red. […] Assay blank background wells (used for normalisation) receive 15 μl 1×GS screening buffer+5 μl GR.
For the IC50 determination (concentration of compound that displaces 50% of the bound GS Red), compounds were tested at eight different concentrations in duplicate in two independently performed experiments. Compounds were prepared as solubilised solids at 10 mM in DMSO. On the day of assay, an 8 point half-log serial dilution (55 μl DMSO+25 μl compound solution) was prepared. A 1:50 dilution (1 μl compound solution+49 μl 1×GR screening buffer) was prepared for each compound. The compounds were prepared at 2× final assay concentration.
The plates were mixed and incubated for 4 hour at room temperature. FP was measured using an Envision Excite plate reader with 535 nm excitation and 590 nm emission interference filters.
Milli-polarisation (mP) values were calculated using the below equation—
where S and P are assay blank background subtracted fluorescence units, G=G-factor (1.07).
Compound IC50 values were calculated by plotting a [compound] v. % inhibition curve and fitting the data to a 4-parameter logistic fit equation.
Reagents. 10×GR screening buffer (100 mM potassium phosphate pH 7.4, 200 mM Na2MoO4, 1 mM EDTA, 20% (v/v) DMSO). To prepare 1×GR screening buffer, combine 1 ml 10×GR screening buffer (PanVera P2814)+1 ml stabilising peptide (PanVera P2815)+7.95 ml 4° C. MQ water. Add 50 μl 1M DTT, vortex and place on ice until use.

The Ki is a dissociation constant, usually derived from enzyme kinetics or from competition with a known ligand.

Regarding `COC[C@]12Cc3cnn(-c4ccc(F)cc4)c3C=C1CCN(S(=O)(=O)c1ccc(N3CCC(F)(F)C3)cc1)C2` [Example 16, (R)-1-(4-Fluoro-phenyl)-6-[4-(3,3-difluoropyrrolidin-1-yl)-benzenesulfonyl]-4a-methoxymethyl-4,4a,5,6,7,8-hexahydro-1H-1,2,6-triaza-cyclopenta[b]naphthalene], the Ki in assay [1] was above 100 nM; in assay [2] it was below 0.5 nM.
For the compound `COC[C@]12Cc3cnn(-c4ccc(F)cc4)c3C=C1CCN(S(=O)(=O)c1ccc(N3CCC[C@H]3C)cc1)C2` [Example 17, (R)-1-(4-Fluoro-phenyl)-6-[4-((R)-2-methylpyrrolidin-1-yl)-benzenesulfonyl]-4a-methoxymethyl-4,4a,5,6,7,8-hexahydro-1H-1,2,6-triaza-cyclopenta[b]naphthalene], the values for the Ki in assay [1] and in assay [2] were above 100 nM and below 0.5 nM, respectively.
The matching figures for `COC[C@@H]1CCCN1c1ccc(S(=O)(=O)N2CCC3=Cc4c(cnn4-c4ccc(F)cc4)C[C@]3(COC)C2)cc1` [Example 18, (R)-1-(4-Fluoro-phenyl)-6-[4-((S)-2-(methoxymethyl)pyrrolidin-1-yl)-benzenesulfonyl]-4a-methoxymethyl-4,4a,5,6,7,8-hexahydro-1H-1,2,6-triaza-cyclopenta[b]naphthalene]: 50 to 100 nM and 0.5 to 1 nM.
With `COC[C@]12Cc3cnn(-c4ccc(F)cc4)c3C=C1CCN(S(=O)(=O)c1ccc(N3CC[C@H](OC)C3)cc1)C2` [Example 19, (R)-1-(4-Fluoro-phenyl)-6-[4-((S)-3-methoxypyrrolidin-1-yl)-benzenesulfonyl]-4a-methoxymethyl-4,4a,5,6,7,8-hexahydro-1H-1,2,6-triaza-cyclopenta[b]naphthalene], the Ki is above 100 nM in assay [1] and below 0.5 nM in assay [2].
The matching figures for `COC[C@]12Cc3cnn(-c4ccc(F)cc4)c3C=C1CCN(S(=O)(=O)c1ccc(N3CCCCC3)cc1)C2` [Example 20, (R)-1-(4-Fluoro-phenyl)-6-[4-(piperidin-1-yl)-benzenesulfonyl]-4a-methoxymethyl-4,4a,5,6,7,8-hexahydro-1H-1,2,6-triaza-cyclopenta[b]naphthalene]: 50 to 100 nM and below 0.5 nM.
The matching figures for `COC[C@]12Cc3cnn(-c4ccc(F)cc4)c3C=C1CCN(S(=O)(=O)c1ccc(N3CCC(C)(C)C3)cc1)C2` [Example 21, (R)-1-(4-Fluoro-phenyl)-6-[4-(3,3-dimethylpyrrolidin-1-yl)-benzenesulfonyl]-4a-methoxymethyl-4,4a,5,6,7,8-hexahydro-1H-1,2,6-triaza-cyclopenta[b]naphthalene]: above 100 nM and below 0.5 nM.
